1 compound from paper PMC4863944, “Inhibition of Oncogenic Transcription Factor REL by the Natural Product Derivative Calafianin Monomer 101 Induces Proliferation Arrest and Apoptosis in Human B-Lymphoma Cell Lines” (Molecules, 2015) can be followed below.

One assay addresses T1, REL (human c-Rel) (Homo sapiens, UniProt Q04864).
T1 construct: FLAG-tagged human REL expressed in 293 cells
T1 sequence (Q04864 2-619): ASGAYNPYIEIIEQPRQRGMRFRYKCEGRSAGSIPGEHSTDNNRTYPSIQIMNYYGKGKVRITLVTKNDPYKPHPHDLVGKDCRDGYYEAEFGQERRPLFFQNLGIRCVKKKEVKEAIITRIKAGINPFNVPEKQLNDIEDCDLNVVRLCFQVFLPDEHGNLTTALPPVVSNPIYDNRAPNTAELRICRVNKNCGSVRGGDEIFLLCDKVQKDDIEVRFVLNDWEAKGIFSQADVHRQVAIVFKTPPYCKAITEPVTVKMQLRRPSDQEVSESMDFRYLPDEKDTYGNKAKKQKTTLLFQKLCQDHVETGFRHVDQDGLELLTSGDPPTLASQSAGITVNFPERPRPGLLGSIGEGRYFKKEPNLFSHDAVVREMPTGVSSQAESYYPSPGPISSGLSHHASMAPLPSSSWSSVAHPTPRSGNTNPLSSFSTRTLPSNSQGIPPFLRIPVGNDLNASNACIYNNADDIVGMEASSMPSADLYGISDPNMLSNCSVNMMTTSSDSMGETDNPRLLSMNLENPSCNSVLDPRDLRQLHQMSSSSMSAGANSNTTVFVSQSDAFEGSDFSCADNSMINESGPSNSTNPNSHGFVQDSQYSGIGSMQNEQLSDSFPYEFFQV
As to the kind of experiment: EMSA of extracts from CM101-treated transfected […] cells; C27S mutant less inhibited; western blot of covalently modified high molecular weight forms. In kind it is cell-based.

For a further assay, the target named is T2, p65 (RelA) (Homo sapiens, UniProt Q04206).
T2 construct: FLAG-tagged human p65 expressed in 293 cells
T2 sequence (Q04206 whole entry): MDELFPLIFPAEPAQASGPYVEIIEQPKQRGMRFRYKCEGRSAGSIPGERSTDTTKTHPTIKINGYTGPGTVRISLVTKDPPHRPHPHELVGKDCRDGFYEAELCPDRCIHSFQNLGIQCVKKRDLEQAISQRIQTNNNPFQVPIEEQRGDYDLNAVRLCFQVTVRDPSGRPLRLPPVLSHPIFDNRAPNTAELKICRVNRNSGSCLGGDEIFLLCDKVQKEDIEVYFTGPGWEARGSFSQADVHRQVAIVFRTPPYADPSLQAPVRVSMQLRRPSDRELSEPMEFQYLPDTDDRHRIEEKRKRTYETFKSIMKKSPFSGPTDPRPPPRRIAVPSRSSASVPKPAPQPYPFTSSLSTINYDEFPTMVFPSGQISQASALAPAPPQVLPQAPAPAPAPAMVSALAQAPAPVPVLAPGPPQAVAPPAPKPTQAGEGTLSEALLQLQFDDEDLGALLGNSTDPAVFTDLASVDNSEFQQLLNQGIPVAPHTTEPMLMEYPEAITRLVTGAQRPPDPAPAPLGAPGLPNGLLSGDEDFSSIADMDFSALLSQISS
As to the kind of experiment: EMSA of extracts from CM101-treated transfected […] cells; C38S mutant less inhibited; western blot of covalently modified high molecular weight forms. Format: cell-based.

Structures are written as SMILES.

Turning to `CCOC(=O)C1=NO[C@@]2(C=C(Br)C(=O)[C@H]3O[C@H]32)C1` (mixture of isomers) [CM101], the IC50 against REL (human c-Rel) and against p65 (RelA) was about 10 µM throughout.
